According to patent US20120225904A1, “New 7-Phenyl-[1,2,4]triazolo[4,3-a]Pyridin-3(2H)-One Derivatives” (priority 2009, published 2012):
pIC50: −log10 of the molar value.

Molecular target: T1, human p38alfa (SAPKa) enzyme (Homo sapiens, UniProt Q16539)
T1 construct: purchased University of Dundee
Experiment: p38alpha enzymatic inhibition assay (FRET, ATF2 substrate)
Assay type: biochemical
Conditions: 1 h pre-incubation; ATF2 0.62 μM, ATP 60 μM; 1 h at 25° C.; read-out: p38α IC50
Procedure: Enzymatic activity assay was performed in 96-well microtiter plates (Corning, catalog number # 3686) using a total volume of 50 μl of an assay buffer composed of 50 mM HEPES (4-(2-hydroxyethyl)-1-piperazineethanesulfonic acid) pH 7.5, 10 mM MgCl2, 1.75 mM Na3VO4.
Various concentrations of the test compound or vehicle controls were pre-incubated for one hour with 0.055 μg/ml of the human p38alfa (SAPKa) enzyme (obtained from University of Dundee). The reaction started by addition of biotinylated ATF2 substrate and ATP in concentrations around their Km values (final concentration 0.62 μM and 60 μM respectively) and took place for one hour at 25° C. Addition of the detection reagents, streptavidin—XL665 and anti-phosphoresidue antibody coupled to Europium cryptate, caused the juxtaposition of the cryptate and the XL665 fluorophore, resulting in fluorescence energy transfer (FRET).The FRET intensity depends on the amount of bounded cryptate antibody, which is proportional to the extent of substrate phosphorylation. FRET intensity was measured using Victor 2V spectrofluorometer.
Data were analyzed by non-linear regression (Hill equation) to generate a dose-response curve. The calculated IC50 value is the concentration of the test compound that caused a 50% decrease in the maximal FRET intensity.

T1 sequence (Q16539 whole entry): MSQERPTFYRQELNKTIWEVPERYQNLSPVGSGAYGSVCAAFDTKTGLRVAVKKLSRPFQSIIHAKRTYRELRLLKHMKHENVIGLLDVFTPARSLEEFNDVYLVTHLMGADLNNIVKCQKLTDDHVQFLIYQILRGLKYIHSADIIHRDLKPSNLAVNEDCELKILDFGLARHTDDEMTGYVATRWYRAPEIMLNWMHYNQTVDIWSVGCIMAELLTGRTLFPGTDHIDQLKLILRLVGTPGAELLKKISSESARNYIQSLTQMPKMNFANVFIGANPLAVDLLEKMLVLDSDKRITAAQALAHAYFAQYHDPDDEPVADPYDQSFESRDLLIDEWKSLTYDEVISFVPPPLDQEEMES

pIC50 | Compound
7.92 | Cc1ccc2c(NC3CC3)noc2c1-c1ccn2c(=O)n(CC(C)(C)C)nc2c1 [Example 11]
8.97 | Cc1c(F)cc(C(=O)NC2CC2)cc1-c1ccn2c(=O)n(-c3ccccc3Cl)nc2c1 [Example 7, 3-[2-(2-Chlorophenyl)-3-oxo-2,3-dihydro[1,2,4]triazolo[4,3-a]pyridin-7-yl]-N-cyclopropyl-5-fluoro-4-methylbenzamide]
8.70 | Cc1c(F)cc(C(=O)NC2CC2)cc1-c1ccn2c(=O)n(CC(C)(C)C)nc2c1 [Example 2, N-cyclopropyl-3-[2-(2,2-dimethylpropyl)-3-oxo-2,3-dihydro[1,2,4]triazolo[4,3-a]pyridin-7-yl]-5-fluoro-4-methylbenzamide]
